Data on eleven molecules can be found in patent US8329895B2, “Cefdinir acid double salt and method for producing the same” (Zhejiang Adamerck Biopharmlabs Inc., priority 2008, dated 2012).

Counter-ions that a name gives are not always drawn. Like-named read-outs stand apart in the source and are kept apart here.

Data set [1] in a line: Bioavailability comparison in beagles, capsules by intragastric administration, cefdinir concentration in venous blood. Type of data set: in vivo. To be noted: for AUC(0-10) / Cmax / Time to peak / AUC(0-t): capsules containing 200 mg of cefdinir, intragastric administration; for AUC(0-10) / AUC(0-t): 0-10 h; for Cmax: cefdinir in venous blood; for Bioavailability percentage increase: compared with conventional cefdinir capsule. The protocol: Beagles, half male and half female, with body weight of 10 kg, were starved for 12 hrs and only water fed. The compounds of the invention were formulated into capsules containing 200 mg of cefdinir and fed to beagles by intragastric administration. The control group was administered with conventional cefdinir capsules. 3 hrs later, the beagles were fed with common food. At 0 h, 0.5 h, 1 h, 1.5 h, 2 h, 2.5 h, 3 h, 4 h, 6 h, 8 h, and 10 h after intragastric administration, 0.5 mL of venous blood was collected respectively to measure the concentration of cefdinir.

Data set [2] can be described thus: Solubility of cefdinir and the double salts in water. The format is physicochemical. From the text: The solubility of the compounds of the invention has been increased by 100 times. Table 1 lists the solubility of the compounds of the invention.)
For data set [3] the following is noted: cited from earlier work.
The conditions of data set [4]: background statement; cited from earlier work.
For data set [5] the following is noted: heating; salt disclosed in CN 1,415,615A; cited from earlier work.
Where [6] appears, read: both sexes, beagle, dog, venous blood, po, 200 mg.
The mark [7] stands for this setting: both sexes, beagle, dog, venous blood, po, 200 mg, read-out: Cmax.

As a reminder, the Cmax is the highest concentration seen after dosing. `C=CC1=C(C(=O)O)N2C(=O)[C@@H](NC(=O)/C(=N\O)c3csc(N)n3)[C@H]2SC1` [Cefdinir sodium dihydrogen phosphate, (−)-(6R,7R)-7-((Z)-2-(2-aminothiazole-4-yl)-2-hydroxyimino-acetylamino)-8-oxo-3-vinyl-5-thia-1-azabicyclo(4.2.0)oct-2-ene-2-carboxylic acid sodium dihydrogen phosphate]: in data set [1] (phosphate), the “AUC(0-10)” value is 123.55 µg·h/mL, the Cmax came to 27280 ng/mL, the Time to peak worked out at 2.5 h and the Bioavailability percentage increase is 20%. For the same molecule, the Solubility entry in data set [2] (phosphate) is recorded as “Slightly soluble”.
Turning to `C=CC1=C(C(=O)O)N2C(=O)C(NC(=O)/C(=N\O)c3csc(N)n3)C2SC1` (single isomer, unassigned; (-)) [Cefdinir ammonium(0.5) hydrogen(1.5) sulfate], in data set [1], the Time to peak was 2.5 h, the “AUC(0-10)” value is 160.31 µg·h/mL, the Cmax came to 34120 ng/mL and the Bioavailability percentage increase was 57%. Moreover, in data set [2], the Solubility result was “Soluble”.
What is called AUC(0-t) is exposure summed from dosing to a finite time, without extrapolation to infinity. Higher therefore signals more exposure. As for `C=CC1=C(C(=O)O)N2C(=O)[C@@H](NC(=O)/C(=N\O)c3csc(N)n3)[C@H]2SC1` [Cefdinir potassium hydrogen sulfate, (−)-(6R,7R)-7-((Z)-2-(2-aminothiazole-4-yl)-2-hydroxyimino-acetylamino)-8-oxo-3-vinyl-5-thia-1-azabicyclo(4.2.0)oct-2-ene-2-carboxylic acid potassium hydrogen sulfate], the exposure AUC(0-t) in data set [1] (setting [6]) came to 261 µg·h/mL. Besides, in data set [1] (setting [7]), the Cmax stood at 54100 ng/mL. In data set [1] (potassium hydrogen sulfate), this molecule yielded a Time to peak of 2.5 h and a Bioavailability percentage increase of 156%. The Solubility entry in data set [2] (potassium hydrogen sulfate) is listed as “Slightly soluble”.
In data set [1], `C=CC1=C(C(=O)O)N2C(=O)C(NC(=O)/C(=N\O)c3csc(N)n3)C2SC1` (single isomer, unassigned; (-)) [Cefdinir sodium(0.5) hydrogen(1.5) sulfate] displayed a Time to peak of 3 h and a Bioavailability percentage increase of 135%. For the same molecule, in data set [2], the Solubility result is listed as “Soluble”.
Usually bioavailability stands for dose-corrected exposure relative to a reference, in per cent. As to `C=CC1=C(C(=O)O)N2C(=O)[C@@H](NC(=O)/C(=N\O)c3csc(N)n3)[C@H]2SC1` [Cefdinir], the bioavailability is reported as 16-20% in data set [3] (capsule) and 25% in data set [3] (liquid suspension). Moreover, the Solubility entry in data set [2] is listed as “hardly soluble”. The Solubility in water result in data set [4] is “insoluble”.
In the case of `C=CC1=C(C(=O)O)N2C(=O)C(NC(=O)/C(=N\O)c3csc(N)n3)C2SC1` (single isomer, unassigned; (-)) [Cefdinir potassium(0.5) hydrogen(1.5) sulfate], in data set [1], the Time to peak is recorded as 3 h, the “AUC(0-10)” value is 213.40 µg·h/mL, the highest concentration (Cmax) amounted to 47650 ng/mL and the Bioavailability percentage increase is 109%. In addition, in data set [2], the Solubility entry was “Soluble”.
Consider `C=CC1=C(C(=O)[O-])N2C(=O)C(NC(=O)C(=NO)c3csc(N)n3)C2SC1.[Na+]` (stereo not drawn) [sodium cefdinir], for which, in data set [5], the “Temperature at which the salt turns black” value was 190 °C and the “Temperature at which the salt turns yellow” value was “about 160 °C”.
For the molecule `C=CC1=C(C(=O)O)N2C(=O)[C@@H](NC(=O)/C(=N\O)c3csc(N)n3)[C@H]2SC1` [Cefdinir potassium dihydrogen phosphate, (−)-(6R,7R)-7-((Z)-2-(2-aminothiazole-4-yl)-2-hydroxyimino-acetylamino) 8-oxo-3-vinyl-5-thia-1-azabicyclo(4.2.0)oct-2-ene-2-carboxylic acid potassium dihydrogen phosphate], in data set [1] (phosphate), the “AUC(0-10)” value was found to be 152.15 µg·h/mL, the Cmax was 30370 ng/mL, the Time to peak is reported as 3 h and the Bioavailability percentage increase is recorded as 49%.
`C=CC1=C(C(=O)O)N2C(=O)[C@@H](NC(=O)/C(=N\O)c3csc(N)n3)[C@H]2SC1` [Cefdinir ammonium hydrogen sulfate, (−)-(6R,7R)-7-((Z)-2-(2-aminothiazole-4-yl)-2-hydroxyimino-acetylamino)-8-oxo-3-vinyl-5-thia-1-azabicyclo(4.2.0)oct-2-ene-2-carboxylic acid ammonium hydrogen sulfate]: in data set [1] (ammonium hydrogen sulfate), the “AUC(0-10)” value worked out at 202.18 µg·h/mL, the Time to peak is 3 h, the highest concentration (Cmax) amounted to 43630 ng/mL and the Bioavailability percentage increase amounted to 98%. For the same molecule, in data set [2] (ammonium hydrogen sulfate), the Solubility entry is recorded as “Slightly soluble”.
In data set [1] (setting [6]), `C=CC1=C(C(=O)O)N2C(=O)C(NC(=O)/C(=N\O)c3csc(N)n3)C2SC1` (single isomer, unassigned; (-)) came in with an AUC(0-t) of 240 µg·h/mL. Besides, in data set [1] (setting [7]), the Cmax came out at 50200 ng/mL.
`C=CC1=C(C(=O)O)N2C(=O)[C@@H](NC(=O)/C(=N\O)c3csc(N)n3)[C@H]2SC1` [Cefdinir sodium hydrogen sulfate, (−)-(6R,7R)-7-((Z)-2-(2-aminothiazole-4-yl)-2-hydroxyimino-acetylamino)-8-oxo-3-vinyl-5-thia-1-azabicyclo(4.2.0)oct-2-ene-2-carboxylic acid sodium hydrogen sulfate]: in data set [1] (sodium hydrogen sulfate), the “AUC(0-10)” value turned out to be 255.27 µg·h/mL, the highest concentration (Cmax) is 65430 ng/mL, the Time to peak amounted to 3 h and the Bioavailability percentage increase is recorded as 149%. Besides, in data set [2] (sodium hydrogen sulfate), the Solubility result was “Slightly soluble”.
